The results in this text go back to US4466980A, “Thiaprostaglandin E1 derivatives, process for production thereof, and pharmaceutical use thereof” (Teijin Limited, priority 1980, dated 1984).

Experiment [1] concerns platelet aggregation. The experiment can be described thus: in vitro inhibitory activity of platelet aggregation (ADP). The experiment is classed as cell-based, rabbit (Japanese domestic white male). As to conditions: Oryctolagus cuniculus, rabbit PRP, 10 μM ADP, 37° C., read-out: IC50 (minimum concentration which inhibited more than 50% of platelet aggregation). On the procedure: The in vitro platelet aggregation imhibiting activity of the compounds of the invention were examined by using rabbits. Blood was withdrawn from the ear vein of Japanese domestic white male rabbits weighing 2.5 to 3.5 kg. A mixture of a 3.8% trisodium citrate solution and the blood in a ratio of 1:9 was centrifuged at a speed of 1000 rpm for 10 minutes. The upper layer was separated as platelet-rich plasma (PRP). The lower layer was further centrifuged at a speed of 2800 rpm for 10 minutes. The upper layer was separated as platelet-poor plasma (PPP). The number of platelets was adjusted to 6×10^5 /μl to 7×10^5 /μl by diluting the PRP with PPP. 25 microliters of the test compounds prepared as shown below was added in an amount of 25 to 250 microliters of PRP after the adjustment, and the mixture was pre-incubated at 37° C. for 2 minutes, and then 10 μM (final) of ADP was added. By using an aggregometer, changes in transmission were recorded.
The drug was dissolved in ethanol to a concentration of 10 mg/ml, and successively diluted with phosphate buffer (pH 7.4) prior to use.
The rate of inhibition of platelet aggregation was determined from the following equation. [formula] To : the transmittance of the system containing the phosphate buffer, T: the transmittance of the sytem to which the test drug was added.
The minimum concentration of the drug which inhibited more than 50% of platelet aggregation was shown as an IC50 value.

In experiment [2] the test system is platelet aggregation. The experiment in a line: extra vivo inhibitory activity of platelet aggregation after oral administration. The experiment is classed as in vivo, guinea pigs (Hartley strain). As to conditions: Cavia porcellus; for inhibition at 10 mg/kg: 10 mg/kg p.o.; for inhibition at 3 mg/kg: 3 mg/kg p.o. On the procedure: The extra vivo platelet aggregation inhibitory activity of the 7-thiaprostaglandin E1 derivatives of the invention were measured by using guinea pigs. A test drug prepared as a 30% ethanol solution of each of the compounds of the invention in ethanol diluted with physiological saline and as a control 30% ethanol solution were orally adminstered in a dose of 1 ml/kg to Hartleystrain guinea pigs having a body weight of 350 to 450 g which had been fasted for 17 hours. 1 hour or 4 hours after the administration of the compound, blood was drawn off by the cardiac puncture using trisodium citrate so that the ratio of the blood to 3.8% trisodium citrate was 9:1. The blood was centrifuged at a speed of 700 rpm for 10 minutes. The upper layer was separated as plateletrich plasma (PRP). The lower layer was further centrifuged at a speed of 2800 rpm for 10 minutes. The upper layer was separated as platelet poor plasma (PPP). 250 microliters of the resulting PRP was taken into an aggregometer cuvette, and incubated at 37° C. for 2 minutes. Then, 25 microliters of a […] ADP disodium solution adjusted by dissolving with 0.1M tris-HCl buffer (ph 8.0) was added. The aggregation curve was recorded for 3 minutes. The maximum degree of aggregation of platelets within this time period was read, and the rate of inhibitor of platelet aggregation was calculated from the following equation. [formula] TC : the transmittance of a control group (to which only the 30% ethanol solution was administered),
TD : the transmittance of a drug administered group.

The test system of experiment [3] is blood pressure and heart beat rate of rats. The experiment in a line: hypotensive activity and heart beat rate, intravenous injection in anesthetized rats. The experiment is classed as in vivo, male wister rats. The settings on record: Rattus norvegicus, i.v.; for ED (10% increase of heart rate): read-out: H-ED10 (dosage causing a 10% increase of the heart rate); for ED (20% lowering of blood pressure): read-out: P-ED20 (dosage causing a 20% lowering of the mean blood pressure). The procedure: (1) The actions of the thiaprostaglandin E1 derivatives of the invention on the blood pressure and heart beat rate of rats were examined by intravenous injection under anesthesia. Male wister rats weighing about 250 g were used. Urethane (500 mg/kg) and α-chloralose (100 mg/kg) were intraperitoneally administered to the rats. The rats were anesthetized and fixed in place. Each of the test compounds was dissolved in a small amount of ethanol and diluted with physiological saline to adjust the final ethanol concentration to not more than 5%. The solution was intravenously injected into the rats through a catheter inserted into the femoral vein. The blood pressure of the rats was measured by a pressure transducer through a catheter inserted into the carotid artery of the rats. The heart beat rate was determined from the blood pressure pulse. The action of the test compound of the blood pressure was expressed as the dosage (p-ED20, μg/kg) of the test compound which caused a 20% lowering of the mean blood pressure before administration of the compound. The action of the test compound on the heart rate was expressed as the dosage (H-ED10, μg/kg) of the test compound which caused a 10% increase of the heart rate from the heart beat rate before administration of the test compound.

Structures are written as SMILES. Values after ≈ are worked out from the molar mass of the structure shown.

In the case of `COC(=O)CCCCSC[C@H]1C(=O)C[C@@H](O)[C@@H]1/C=C/[C@@H](O)C1CCCCC1` [Compound 308, 16,17,18,19,20-pentanor-15-cyclohexyl-6-thiaprostaglandin E1 methyl ester], in the experiment on platelet aggregation [1], the IC50 worked out at 0.32 µg/mL (≈ 0.803 µM).

Turning to `COC(=O)CCSCCC[C@H]1C(=O)C[C@@H](O)[C@@H]1/C=C/[C@@H](O)C1CCCCC1` [Compound 413], the IC50 with platelet aggregation [1] was 2.4 µg/mL (≈ 6.02 µM).

For the molecule `COC(=O)/C=C/CCCS[C@H]1C(=O)C[C@@H](O)[C@@H]1/C=C/[C@@H](O)C1CCCCC1` [Compound 156, 16,17,18,19,20-pentanor-15-cyclohexyl-2,3-dehydro-7-thiaprostaglandin E1 methyl ester], in the experiment with platelet aggregation [1], the IC50 is 0.091 µg/mL (≈ 0.229 µM).

With `COC(=O)C(C)CCCCS[C@H]1C(=O)C[C@@H](O)[C@@H]1/C=C/[C@@H](O)C1CCCCC1` (stereo partly shown) [Compound 150, 16,17,18,19,20-pentanor-15-cyclohexyl-2-methyl-7-thiaprostaglandin E1 methyl ester], in the experiment on platelet aggregation [1], the IC50 is 0.52 µg/mL (≈ 1.26 µM). In addition, the results for the inhibition at 10 mg/kg with platelet aggregation [2] (1 hr) and in the experiment with platelet aggregation [2] (4 hr) were 20.8% and 0.7%, respectively.

For `CCCCC[C@H](O)/C=C/[C@H]1[C@H](O)CC(=O)[C@@H]1CSCCCCC(=O)O` [Compound 300, 6-thiaprostaglandin E1], the IC50 in the experiment on platelet aggregation [1] was 0.45 µg/mL (≈ 1.21 µM).

On to `CCCC(C)CC(O)/C=C/[C@H]1CCC(=O)[C@@H]1SCCCCCC(=O)OC` (relative stereo) [reference compound], for which the IC50 in the experiment on platelet aggregation [1] is over 100 µg/mL.

Turning to `CCCC[C@H](C)C[C@H](O)/C=C/[C@H]1[C@H](O)CC(=O)[C@@H]1SCCCCCC(=O)OC` [Compound 131, 17(S),20-dimethyl-7-thiaprostaglandin E1 methyl ester], in experiment [3], the ED (10% increase of heart rate) was determined as 0.83 µg/kg and the ED (20% lowering of blood pressure) is 2.3 µg/kg. In addition, the IC50 in the experiment on platelet aggregation [1] is 0.0006 µg/mL (≈ 0.00145 µM). Further, in the experiment with platelet aggregation [2] (1 hr), the inhibition at 3 mg/kg came out at 100%.

In the case of `O=C(CCCCCS[C@H]1C(=O)C[C@@H](O)[C@@H]1/C=C/[C@@H](O)C1CCCCC1)Oc1ccccc1` [Compound 144, 16,17,18,19,20-pentanor-15-cyclohexyl-7-thiaprostaglandin E1 phenyl ester], in experiment [3], the ED (10% increase of heart rate) was 2.6 µg/kg and the ED (20% lowering of blood pressure) came out at 3.4 µg/kg. In addition, the IC50 in the experiment on platelet aggregation [1] was determined as 0.015 µg/mL (≈ 0.0326 µM). In the experiment on platelet aggregation [2] (1 hr), at 3 mg/kg the inhibition was 37.4% and the inhibition at 10 mg/kg is 85.4%. Moreover, in the experiment on platelet aggregation [2] (4 hr), the inhibition at 3 mg/kg was 3% and the inhibition at 10 mg/kg turned out to be 79.2%.

Take `CCCCC[C@H](O)/C=C/[C@H]1[C@H](O)CC(=O)[C@@H]1CCCSCCC(=O)OC` [Compound 405, 4-thiaprostaglandin E1 methyl ester]: in the experiment on platelet aggregation [1], the IC50 was found to be 8.6 µg/mL (≈ 22.2 µM).

For `O=C(O)CCCCSC[C@H]1C(=O)C[C@@H](O)[C@@H]1/C=C/[C@@H](O)C1CCCCC1` [Compound 303, 16,17,18,19,20-pentanor-15-cyclohexyl-6-thiaprostaglandin E1], the IC50 in the experiment on platelet aggregation [1] stood at 0.27 µg/mL (≈ 0.702 µM).

In the case of `COC(=O)CCCCCS[C@@H]1C(=O)C[C@H](O)[C@H]1/C=C/[C@@H](O)C1CCCCC1` [15-epi-ent of Compound 138], the IC50 in the experiment on platelet aggregation [1] was found to be 0.11 µg/mL (≈ 0.276 µM).

For the molecule `O=C(CCCCCS[C@H]1C(=O)C[C@@H](O)[C@@H]1/C=C/[C@@H](O)C1CCCCC1)OCc1ccccc1` [Compound 147, 16,17,18,19,20-pentanor-15-cyclohexyl-7-thiaprostaglandin E1 benzyl ester], the IC50 with platelet aggregation [1] amounted to 0.054 µg/mL (≈ 0.114 µM). Moreover, the inhibition at 10 mg/kg in the experiment with platelet aggregation [2] (1 hr) stood at 54%; with platelet aggregation [2] (4 hr), 28.9%.

`CCCC[C@H](C)C[C@H](O)/C=C/[C@H]1[C@H](O)CC(=O)[C@@H]1SCCC/C=C/C(=O)OC` [Compound 160, 17(S),20-dimethyl-2,3-dehydro-7-thiaprostaglandin E1 methyl ester]: in the experiment with platelet aggregation [1], the IC50 amounted to 0.64 µg/mL (≈ 1.55 µM).

Take `O=C(O)CCCCCS[C@H]1C(=O)C[C@@H](O)[C@@H]1/C=C/[C@@H](O)C1CCCCC1` [Compound 111, 16,17,18,19,20-pentanor-15-cyclohexyl-7-thiaprostaglandin E1]: in experiment [3], the ED (10% increase of heart rate) was determined as 2.5 µg/kg and the ED (20% lowering of blood pressure) worked out at 1.17 µg/kg. The IC50 with platelet aggregation [1] came to 0.004 µg/mL (≈ 0.0104 µM).

With `CCCCC[C@H](O)/C=C/[C@H]1[C@H](O)CC(=O)[C@@H]1SCCCCCC(=O)OC` [Compound 124, 7-Thiaprostaglandin E1 methyl ester], the IC50 in the experiment on platelet aggregation [1] came to 0.47 µg/mL (≈ 1.22 µM).

`CCCCCCCCCCOC(=O)CCCCCS[C@H]1C(=O)C[C@@H](O)[C@@H]1/C=C/[C@@H](O)C1CCCCC1` [Compound 143, 16,17,18,19,20-pentanor-15-cyclohexyl-7-thiaprostaglandin E1 decyl ester]: the IC50 with platelet aggregation [1] was 0.058 µg/mL (≈ 0.111 µM).

As to `CCCC[C@@H](C)C[C@H](O)/C=C/[C@H]1[C@H](O)CC(=O)[C@@H]1SCCCCCC(=O)OC` [Compound 134, 17(R),20-dimethyl-7-thiaprostaglandin E1 methyl ester], the IC50 in the experiment with platelet aggregation [1] was found to be 0.0018 µg/mL (≈ 0.00434 µM).

For `CCCCC[C@H](O)/C=C/[C@H]1[C@H](SCCCCCC(=O)OC)C(=O)C[C@@H]1O` [15-epi-ent of Compound 124], the IC50 in the experiment with platelet aggregation [1] came to 8.9 µg/mL (≈ 23 µM).

In the case of `CCCCC[C@H](O)/C=C/[C@H]1[C@H](O)CC(=O)[C@@H]1CSCCCCC(=O)OC` [Compound 305, 6-thiaprostaglandin E1 methyl ester], the IC50 with platelet aggregation [1] stood at 6 µg/mL (≈ 15.5 µM).

Usually inhibition stands for the relative decrease from the control value, in per cent. A higher inhibition goes with strong suppression.
